Values quoted from earlier work as cited in US8329734B2, “Topical therapy for migraine” (AFGIN Pharma LLC, priority 2009, dated 2012).

Row | metabolism (in vivo) | oral bioavailability (oral) [%] | crossing of intact blood-brain barrier (in vivo) | SMILES
1 | metabolized by the MAO system |  |  | CNS(=O)(=O)Cc1ccc2[nH]cc(CCN(C)C)c2c1 [Sumatriptan, 3-(2-(dimethylamino)ethyl)-N-methyl-1H-indole-5-methanesulfonamide]
2 |  | ~70 |  | CNS(=O)(=O)CCc1ccc2[nH]cc(C3CCN(C)CC3)c2c1 [naratriptan]
3 | metabolized by the MAO system |  |  | CN(C)CCc1c[nH]c2ccc(Cn3cncn3)cc12 [rizatriptan]
4 | metabolized by the MAO system |  | does cross an intact blood-brain barrier | CN(C)CCc1c[nH]c2ccc(C[C@H]3COC(=O)N3)cc12 [zolmitriptan]
